Reference: ChEMBL document CHEMBL3988442, “University of Dundee, Small-Polar-MMV Screening Library” (2021)
Where “and” joins values, the source holds several entries; their conditions need not be identical. Identical values can stand only once.

Key:
[1] = In vitro enzyme assay to detect hydrolysis of chlorophenol red-beta-D-[…] directly proportional to the number of Toxoplasma stably expressing beta-galactosidase; type: functional, organism-based, Toxoplasma gondii; conditions: for IC50: Toxoplasma gondii
[2] = microbe, parasite or virus in culture; conditions: Mycobacterium tuberculosis, 72 h, read-out: pIC50 (converted)
[3] = microbe, parasite or virus in culture; conditions: Mycobacterium tuberculosis, 96 h, read-out: pIC50 (converted)

| Structure (SMILES) | IC50 [1] [µM] | IC50 [2] [µM] | IC50 [3] [µM] | pIC50 [1] |
| --- | --- | --- | --- | --- |
| CCC(C#N)NC(=O)c1cnc(OC(C)C)c(Cl)c1 (centres undefined) | > 50.1 | 131 | 291 | – |
| CCc1nccn1CCNC1CCN(c2nc3ccc(Cl)cc3s2)CC1 | 8.99 | 34 | 18.4 | – |
| NCC(O)c1ccc(-c2ccccc2)cc1 (centres undefined) | > 25.1 | 104 | 97.4 | – |
| Nc1nc(N)nc(CN2CCCC2c2cccs2)n1 (centres undefined) | > 50.1 | 171 | > 501 | – |
| c1ccc(C2CNCCCO2)cc1 (centres undefined) | > 50.1 | 166 | 306 | – |
| COc1ncccc1-c1csc(NCCSC)n1 | > 50.1 | 101 | 284 | – |
| Cc1ccc(F)cc1S(=O)(=O)N1C[C@H](C2CC2)[C@@H](N)C1 | > 50.1 | 259 | > 501 | – |
| NCCc1ccc(-n2cccn2)cc1 | > 50.1 | 188 | 191 | – |
| CC(C)Sc1ccccc1NS(=O)(=O)N(C)C | > 50.1 | 173 | 252 | – |
| Cc1cc(C)n(-c2nc(NCCCO)c3c4c(sc3n2)CCCC4)n1 | – | 45.4 | 41.8 | 5.989 and 5.533 |
| C(Cc1noc(C2CNC2)n1)OCC1CC1 | 24.8 | 136 | 352 | – |
| CCn1nc(C)c2nc(C(C)C)nc(NCC(C)C)c21 | 25.4 | 47.1 | 49.2 | – |
| O=C(CN1CCC=C(F)C1)Nc1cccc(F)c1 | > 50.1 | 300 | 278 | – |
| COC(=O)c1[nH]cc(-c2ccccc2)c1N | > 50.1 | 196 | 172 | – |
| Clc1cccc(-c2cccc(N3CCC(NC4CCOCC4)CC3)c2)c1 | 14.4 | 29.7 | 34.9 | – |
| CCNc1ncc2c(n1)CN(c1ccc(CC)cc1)C2=O | > 50.1 | – | > 50.1 | – |
| CCCn1c(N2CCCC(C)C2)nc2c(C)nn(C)c2c1=O (centres undefined) | 22.2 | – | > 50.1 | 4.506 |
| CCc1ccccc1NC(=O)C1=NN(C)C(=O)CC1 | > 50.1 | – | – | – |
| Cc1noc(CCCNC(=O)c2ccon2)n1 | > 50.1 | – | – | – |
| O=C(N1CCOCC1)[C@@]12CCO[C@@H]1CCN(C1CCC1)C2 | > 50.1 | – | – | – |
| Cc1[nH]c2ccccc2c1-c1ccnc(N[C@@H](C)CO)n1 | 43.3 | – | – | – |

| Structure (SMILES) | IC50 [1] [µM] | IC50 [2] [µM] | IC50 [3] [µM] | pIC50 [1] |
| --- | --- | --- | --- | --- |
| CC(C(=O)Nc1sccc1C(N)=O)N(C)CCOc1ccccc1 (centres undefined) | 2.24 | – | – | 5.826 |
| CNC(=O)NC(=O)CCN1CCCC(C)C1 (centres undefined) | > 50.1 | – | – | – |
| Cc1cccc(Cn2cc(Br)c(NS(C)(=O)=O)n2)c1 | > 50.1 | – | – | – |
| Cc1nccn1CCNc1cc(C2CC(O)C2)ncn1 (centres undefined) | > 50.1 | – | – | – |
| Cc1nn(C)c(C)c1CNC(=O)c1cc(NC(=O)C2CC2)n(C)n1 | > 50.1 | – | – | – |
| CC(Cc1ccco1)NS(=O)(=O)N1CCOCC1 (centres undefined) | > 50.1 | – | – | – |
| CC(C)=CCN1CCOC(Cn2nc(C)cc2C)C1 (centres undefined) | > 50.1 | – | – | – |
| COCCN(Cc1ccccc1Cl)c1nc(CCN)nc2ccccc12 | 13 | – | – | – |
| O=C(N1CCCC1)N1C[C@H]2CCC[C@@]2(COCc2ccccn2)C1 | > 50.1 | – | – | – |
| Cn1ccc2ccc(NS(=O)(=O)C3CC3)cc2c1=O | > 50.1 | – | – | – |
| CCCNC(=O)CCn1nc(C)cc1C | > 50.1 | – | – | – |
| O=C(CN1CCc2sccc2C1)Nc1ccnc2ccnn12 | 2.81 | – | – | 5.251 |
| COc1c(CNC2(c3noc(C)n3)CCC2)c(C)nn1C | > 50.1 | – | – | – |
| O=C1CN(CC(=O)Nc2c(Cl)cccc2Cl)CCN1 | > 50.1 | – | – | – |
| N[C@@H]1CC[C@H](C(=O)NCc2csc(N3CCCC3)n2)C1 | > 50.1 | – | – | – |
| CC(C)CSc1nnc(CN2CCCC2=O)o1 | > 50.1 | – | – | – |
| Cc1cnc(N2CC[C@H]3[C@@H]2CCC(=O)N3c2ccccc2)nc1.O=C(O)C(F)(F)F | > 50.1 | – | – | 4.34 |
| CCn1cc(NC(=O)c2cc(C)nc(N3CCOCC3)n2)cn1 | > 25.1 | – | – | – |
| CCN(CCNS(=O)(=O)N1CCOCC1)C(=O)OC(C)(C)C | > 50.1 | – | – | – |
| OC[C@H]1CCCN1c1nccc(-c2c[nH]nc2C2CCCCC2)n1 | 11.5 | – | – | – |
| CNc1ncc(C(=O)N2CCCC(Cc3ccccc3OC)C2)s1 (centres undefined) | 45.9 | – | – | – |

| Structure (SMILES) | IC50 [1] [µM] | IC50 [2] [µM] | IC50 [3] [µM] | pIC50 [1] |
| --- | --- | --- | --- | --- |
| CC(C)COC1CCN(S(=O)(=O)N2CCCC2)CC1 | > 50.1 | – | – | – |
| O=C(c1ccc(-c2ccc(O)nc2)s1)N1CCCCC1 | > 50.1 | – | – | – |
| COc1ccc(C2CCCN2c2ccnc(C)c2Cl)c(OC)c1 (centres undefined) | 14 | – | – | – |
| CC(CN)C(=O)Nc1cn[nH]c1 (centres undefined) | > 50.1 | – | – | – |
| CCS(=O)(=O)N(CCc1cccs1)CC(=O)NC | > 50.1 | – | – | – |
| COC(C)CCC(=O)NCc1cn2ccccc2n1 (centres undefined) | > 50.1 | – | – | – |
| N#Cc1ccc(-n2nccc2N)cc1 | 13.6 | – | – | – |
| Nc1c[nH]nc1C(=O)NCc1cccc(Cl)c1 | > 50.1 | – | – | – |
| Cc1cc(NCCCOC(C)C)c2nncn2n1 | > 50.1 | – | – | – |
| O=C(c1cnsn1)N1CCN(C2CC2)C(=O)C1 | > 50.1 | – | – | – |
| NC(=O)C[C@@H](N)c1ccccc1Cl | > 50.1 | – | – | – |
| Cc1nnc(SCCNC(=O)CC2C=CS(=O)(=O)C2)s1 (centres undefined) | > 50.1 | – | – | – |
| Cn1cc(CN2C[C@@H]3COC[C@H](C(=O)Nc4cccnc4)[C@@H]3C2)cn1 | > 50.1 | – | – | – |
| CCN(CC)Cc1nnnn1-c1ccccc1 | > 50.1 | – | – | – |
| Cc1cc(C(=O)Nc2cnn(CC(F)(F)F)c2)nc(N2CCOCC2)n1 | > 50.1 | – | – | – |
| CN1C(=O)c2cccn2CC1CNC(=O)c1ccco1 (centres undefined) | > 50.1 | – | – | – |
| O=C(c1ccc(COc2ccccc2Cl)o1)N1N=CCC1(O)C(F)(F)F (centres undefined) | 6.07 | – | – | 5.104 |
| O=C(NC1CCCC1)c1cnccn1 | > 50.1 | – | – | – |
| NC(=O)C(Cc1ccccc1)NS(=O)(=O)Cc1ccccc1Cl (centres undefined) | > 50.1 | – | – | – |
| CC(=O)Nc1ncc(S(=O)(=O)Nc2cccc(C)c2)s1 | > 50.1 | – | – | – |
| CC(C)CNC(=O)CSc1n[nH]c(-c2ccccn2)n1 | > 50.1 | – | – | – |

| Structure (SMILES) | IC50 [1] [µM] | IC50 [2] [µM] | IC50 [3] [µM] | pIC50 [1] |
| --- | --- | --- | --- | --- |
| Cc1c(-c2ccccc2)nc2c(c(C)c(C)n2CCN(C)C)c1N | 15.6 | – | – | – |
| COC(=O)c1ccc(NS(=O)(=O)c2cnc(NC(C)=O)s2)cc1 | > 50.1 | – | – | – |
| CNc1ncc2c(n1)CN(c1cccc(OC)c1)C2=O | > 50.1 | – | – | – |
| CCN(Cc1nonc1C)C(=O)Cn1nc(C(F)(F)F)cc1C1CC1 | > 50.1 | – | – | – |
| c1ccc(-c2nn3c(CN4CCOCC4)nnc3s2)nc1 | > 50.1 | – | – | – |
| CCCc1nc(NCCCOCC)c2c(n1)c(C)nn2CC | > 50.1 | – | – | – |
| CCC(C)(CC(=O)OC)NCc1cc(C)on1 (centres undefined) | > 50.1 | – | – | – |
| Cc1cccc(NC(=O)C2CC(=O)n3cnnc3S2)c1 (centres undefined) | > 50.1 | – | – | 4.363 |
| O=C(COc1ccc2c(c1)CCC2)NCc1ccco1 | 35.5 | – | – | – |
| C1CN[C@@H]2CNC[C@@H]2C1 | > 50.1 | – | – | – |
| Cc1ncc(CN2CCOC(c3ccc(-c4ccccc4F)cn3)C2)s1 (centres undefined) | 9.61 | – | – | – |
| CC(C)CC1NCCNC1=O (centres undefined) | > 50.1 | – | – | – |
| Cc1cc(CN2CCC3(CC2)COC(COc2ccccn2)C3)no1 (centres undefined) | > 50.1 | – | – | – |
| COc1ccccc1N1CCCC(N)C1 (centres undefined) | > 50.1 | – | – | – |
| Cc1cccc(OCc2ccc(C(=O)N3N=CCC3(O)C(F)(F)F)o2)c1 (centres undefined) | 3.87 | – | – | 5.353 |
| CS(=O)(=O)NCc1ccc(CN2CCCC2=O)cc1 | > 50.1 | – | – | – |
| CC(C)n1ccc(CN2C(=O)CC(C)(C)C2=O)n1 | > 50.1 | – | – | – |
| COC[C@H]1CCC[C@]12CN(Cc1cccc(C)n1)CCO2 | > 50.1 | – | – | 4.382 |
| C[C@@H]1CN(C(=O)c2cc(F)cc(C#N)c2)C[C@]1(C)O | > 50.1 | – | – | – |
| CN(Cc1cccc(C#N)c1)Cc1ccnc(N)c1 | > 50.1 | – | – | – |
| Cc1nn(C)c2c(=O)n(Cc3ccc(Cl)cc3)nnc12 | > 50.1 | – | – | – |
